One assay addresses CRBN-DDB1 (Homo sapiens (Human), UniProt Q96SW2). Put plainly: Homogenous Time-Resolved Fluorescence (HTRF) binding assay to CRBN. On the procedure: Compound activity was monitored in a Homogenous Time-Resolved Fluorescence (HTRF) assay using 1-[5-({2-[2-(2-{[2-(2,6-dioxopiperidin-3-yl)-1,3-dioxo-2,3-dihydro-1H-isoindol-4-yl]oxy}acetamido)ethoxy]ethyl}carbamoyl)pentyl]-3,3-dimethyl-2-[(1E,3E)-5-[(2E)-1,3,3-trimethyl-5-sulfo-2,3-dihydro-1H-indol-2-ylidene]penta-1,3-dien-1-yl]-3H-indol-1-ium-5-sulfonate as a fluorescent probe. […] Compounds were stored in dry, ambient temperatures at 10 mM. A 10-point, 1:3 dilution series was prepared from 10 mM stock concentrations in Echo-compatible LDV plates. 10 nL of each compound dilution series was dispensed into assays wells using an Echo 650 (Labcyte inc. USA). […] The assay was then allowed to incubate for 30 min at ambient temperature after transferring compound. […] Analysis and IC50 values were derived using KNIME analytics (KNIME Zurich) transformation and fitting within Collaborative Drug Discovery (Collaborative Drug Discovery USA). Ki was derived from the geometric mean of the IC50 values using the Cheng-Prustoff transformation.
In general terms: TR-FRET usually uses a lanthanide donor and a delayed reading to cut background.

Assay [1] deals with T1, GSPT1 (Homo sapiens (Human), UniProt P15170+Q96SW2). Put plainly: immunofluorescence assay for GSPT1 degradation in CAL-51 cells (Example 10). The class given is cell-based. Put shortly: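 CAL-51 cells fixed in formalin, immunostained overnight at 4 °C for GSPT1 and imaged by high-content microscopy. Cells segmented from DAPI and actin channels. DC50 from GSPT1 signal normalized to controls by non-linear regression.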
Target sequence in this assay (P15170 whole entry): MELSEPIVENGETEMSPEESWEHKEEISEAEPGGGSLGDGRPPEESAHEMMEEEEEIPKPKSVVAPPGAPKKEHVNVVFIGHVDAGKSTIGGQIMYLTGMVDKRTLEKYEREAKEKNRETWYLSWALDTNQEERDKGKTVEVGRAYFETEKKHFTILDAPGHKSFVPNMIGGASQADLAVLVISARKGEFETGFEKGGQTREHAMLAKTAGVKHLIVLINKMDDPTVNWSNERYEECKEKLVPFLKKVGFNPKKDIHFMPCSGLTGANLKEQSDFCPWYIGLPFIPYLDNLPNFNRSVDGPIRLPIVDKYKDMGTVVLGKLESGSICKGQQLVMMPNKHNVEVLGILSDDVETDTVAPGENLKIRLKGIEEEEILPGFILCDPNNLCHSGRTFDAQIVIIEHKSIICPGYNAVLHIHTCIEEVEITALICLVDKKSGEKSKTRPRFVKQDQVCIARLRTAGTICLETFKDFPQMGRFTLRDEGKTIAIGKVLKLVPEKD
Target sequence in this assay (Q96SW2 whole entry): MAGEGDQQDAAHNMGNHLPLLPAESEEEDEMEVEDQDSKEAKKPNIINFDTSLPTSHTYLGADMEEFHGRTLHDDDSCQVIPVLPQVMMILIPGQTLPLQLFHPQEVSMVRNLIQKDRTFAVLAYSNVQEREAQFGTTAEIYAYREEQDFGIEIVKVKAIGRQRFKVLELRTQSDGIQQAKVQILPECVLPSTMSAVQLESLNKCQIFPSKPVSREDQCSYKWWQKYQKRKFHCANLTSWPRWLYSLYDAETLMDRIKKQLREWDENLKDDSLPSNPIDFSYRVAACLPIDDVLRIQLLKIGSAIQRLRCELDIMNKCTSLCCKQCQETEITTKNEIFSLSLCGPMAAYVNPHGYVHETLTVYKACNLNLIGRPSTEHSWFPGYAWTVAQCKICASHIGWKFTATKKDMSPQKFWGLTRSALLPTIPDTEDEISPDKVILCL
Target sequence in this assay (Q16531 2-1140 partner): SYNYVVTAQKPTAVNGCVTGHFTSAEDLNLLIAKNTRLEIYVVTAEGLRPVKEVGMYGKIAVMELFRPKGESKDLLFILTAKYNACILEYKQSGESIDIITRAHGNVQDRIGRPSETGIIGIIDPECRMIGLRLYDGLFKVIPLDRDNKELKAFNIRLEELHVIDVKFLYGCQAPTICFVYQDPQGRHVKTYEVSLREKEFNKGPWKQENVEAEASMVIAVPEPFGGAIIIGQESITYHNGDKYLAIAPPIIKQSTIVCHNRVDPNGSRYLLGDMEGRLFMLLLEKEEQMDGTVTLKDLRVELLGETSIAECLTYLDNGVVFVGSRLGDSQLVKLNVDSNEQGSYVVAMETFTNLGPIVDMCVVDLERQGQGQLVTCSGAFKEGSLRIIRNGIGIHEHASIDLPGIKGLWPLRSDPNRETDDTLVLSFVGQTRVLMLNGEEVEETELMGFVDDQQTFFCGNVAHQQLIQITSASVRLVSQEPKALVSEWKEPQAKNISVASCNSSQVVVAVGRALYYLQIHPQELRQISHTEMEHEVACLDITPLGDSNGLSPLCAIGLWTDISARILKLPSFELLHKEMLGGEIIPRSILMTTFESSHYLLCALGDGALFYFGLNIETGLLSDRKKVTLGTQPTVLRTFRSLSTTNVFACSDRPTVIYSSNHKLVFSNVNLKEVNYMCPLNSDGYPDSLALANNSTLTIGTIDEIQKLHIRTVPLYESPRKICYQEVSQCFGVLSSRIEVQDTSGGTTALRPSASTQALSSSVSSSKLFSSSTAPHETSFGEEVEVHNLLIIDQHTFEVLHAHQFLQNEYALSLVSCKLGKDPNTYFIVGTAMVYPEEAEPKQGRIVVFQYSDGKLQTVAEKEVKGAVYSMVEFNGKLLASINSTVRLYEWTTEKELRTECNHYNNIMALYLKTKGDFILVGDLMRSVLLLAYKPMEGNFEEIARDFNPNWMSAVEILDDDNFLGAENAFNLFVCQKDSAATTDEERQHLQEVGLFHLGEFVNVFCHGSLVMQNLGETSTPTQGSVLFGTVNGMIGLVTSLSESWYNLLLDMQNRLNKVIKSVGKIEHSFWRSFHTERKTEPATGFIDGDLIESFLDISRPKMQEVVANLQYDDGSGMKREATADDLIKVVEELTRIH

Assay [2] has as its target T1, GSPT1. Put plainly: immunofluorescence assay for GSPT1 degradation in CAL-51 cells (Example 4). The class given is cell-based. Put shortly: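 CAL-51 cells on fibronectin-coated plates were treated 6 h with serial dilutions (30 μM to 0.1 nM), then fixed and immunostained for GSPT1 with DAPI and phalloidin counterstains. Per-cell mean GSPT1 intensity from high-content imaging, normalized to controls; DC50 by non-linear regression.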
Target sequence in this assay (P15170 whole entry): as the sequence (P15170 whole entry) above
Target sequence in this assay (Q96SW2 whole entry): as the sequence (Q96SW2 whole entry) above
Target sequence in this assay (Q16531 2-1140 partner): as the sequence (Q16531 2-1140 partner) above

The next assay deals with IKZF1 (Ikaros) (Homo sapiens (Human), UniProt Q13422). Put plainly: selectivity by Western blot in MM1S cells, IKZF1. It counts as cell-based. More on the design: key to IKZF1 degradation: A represents a no degradation observed at 30 μM; B represents trace degradation at 30 μM (below 20%); C represents weak degradation at 30 μM (below 50%); D represents degradation at 30 μM (>90%); E represents degradation at 3 μM (>90%); F represents degradation at 0.3 μM (>90%). Conditions: MM1S cells, 6 hours, 0.3, 3 and 30 μM. On the procedure: (§1) MM1S cells were purchased from ATCC (cat. Number CRL-2974), sub-cultured in 90% RPMI 1640 with 10% FBS, supplemented with 1× P/S and incubated at 37° C., 5% CO2. Compounds were stored as 10 mM DMSO stock. For the assay, MM1S cells (3 million cells/well) were plated in 6-well plates and incubated over night. Cells were treated with respective compounds using a serial dilution: 0.3 μM, 3 μM and 30 μM as well as a vehicle only (DMSO) control for 6 hours. Media with suspension cells was subsequently transferred to 15 mL conical tubes, wells rinsed twice with ice-cold PBS and merged with cell suspension in respective 15 mL conical tube. Cells were spinned down, supernatant aspirated, pellets resuspended in ice-cold PBS and transferred to microtubes. Cells were spinned down, supernatant aspirated and pellets resuspended in 120 μL RIPA lysis buffer supplemented with protease and phosphatase inhibitors. Cell lysates were incubated on ice for 20 minutes followed by centrifugation at >20,000 xg for 5 min. Supernatants were transferred to fresh microtubes and stored at −80° C. Total protein concentration was determined using a BCA assay with a BSA standard curve and concentration of all samples was adjusted to 1 mg/mL. 25 μL 4× LDS sample buffer supplemented with 100 mM DTT was added to 75 μL sample. Samples were centrifuged (8,000 xg, 1 min) and incubated at 95° C. for 5 min followed by another centrifugation step (8,000 xg, 1 min). 20 μL of each sample was loaded on a 4-12% gel alongside a protein molecular weight marker. Gels were run in the presence of MOPS buffer at 80 Volts for 30 min, followed by 120 Volts for 1.5 h and proteins subsequently transferred onto nitrocellulose membranes at 20 Volts for 7 min using an iBlot2 Gel Transfer Device. Membranes were then cut horizontally into two pieces, covering 80-50 kDa and 50-25 kDa. Blocking the membranes was performed by gently shaking in 5% (w/v) skim milk in TSB-T for 1 hr at room temperature. All primary antibodies were used at a 1/1000 in 5% (w/v) BSA dissolved in TBST and incubated with membranes over night at 4° C. Anti-IKZF1 (Ikaros; D6N9Y; 14859S), anti-IKZF3 (Aiolos; D1C1E; 15103S) antibodies were purchased from Cell Signalling Technology, anti-ZFP91 antibody from Bethyl laboratories, anti-GSPT1 from Sigma Aldrich (HPA052488) and anti CK1alpha from AbCam (ab206652). After three washes with 1× TBST for 5 min, HRP-coupled secondary antibodies diluted in 5% (w/v) BSA/TBST (Goat Anti-Rb IgG, dil. 1/10,000; Goat Anti-Mouse IgG, dil. 1/5000) were added for 1 hr at room temperature. After three washes with 1× TBST (5 minutes each), membranes were incubated with ECL reagent for 1 min at room temperature. Chemiluminescence signals were then detected using a LAS-4000 system with default settings and signals quantified using Image Studio Lite software (version 5.2). Membrane parts previously incubated with antibody against CK1alpha were stripped off antibodies by incubating with stripping buffer for 30 minutes followed by three washed with TBST (5 min each), blocking with 5% (w/v) skim milk for 1 hr, and incubation with primary antibody against GAPDH overnight at 4° C. Subsequent washes, incubation with secondary antibody and signal acquisition were performed as described above.

For the next assay, the target named is IKZF3 (Aiolos) (Homo sapiens (Human), UniProt Q9UKT9). Put plainly: selectivity by Western blot in MM1S cells, IKZF3. It counts as cell-based. The following applies: MM1S cells, 6 hours, 0.3, 3 and 30 μM. Details: key to IKZF3 degradation: A represents a no degradation observed at 30 μM; B represents trace degradation at 30 μM (below 20%); C represents weak degradation at 30 μM (below 50%); D represents degradation at 30 μM (>90%); E represents degradation at 3 μM (>90%); F represents degradation at 0.3 μM (>90%). The method, then:
as §1

In a further assay the target is CK1alpha (Homo sapiens (Human), UniProt P48729). Put plainly: selectivity by Western blot in MM1S cells, CK1alpha. It counts as cell-based. Conditions: MM1S cells, 6 hours, 0.3, 3 and 30 μM. On the procedure:
as §1
Background: Immunoblotting shows a protein as a band on a membrane.

For a further assay, the target named is ZFP91 (Homo sapiens (Human), UniProt Q96JP5). Put plainly: selectivity by Western blot in MM1S cells, ZFP91. The class given is cell-based. Conditions: 6 hours, 0.3, 3 and 30 μM. On the procedure: as §1, with “After three washes with 1× TBST (5 minutes each), membranes were incubated with ECL reagent for 1 min at room temperature.” left out, “Membrane parts previously incubated with antibody against CK1alpha were stripped off antibodies by incubating with stripping buffer for 30 minutes followed by three washed with TBST (5 min each), blocking with 5% (w/v) skim milk for 1 hr, and incubation with primary antibody against GAPDH overnight at 4° C. Subsequent washes, incubation with secondary antibody and signal acquisition were performed as described above.” left out
Chain of ZFP91 (Q96JP5 whole entry, looked up): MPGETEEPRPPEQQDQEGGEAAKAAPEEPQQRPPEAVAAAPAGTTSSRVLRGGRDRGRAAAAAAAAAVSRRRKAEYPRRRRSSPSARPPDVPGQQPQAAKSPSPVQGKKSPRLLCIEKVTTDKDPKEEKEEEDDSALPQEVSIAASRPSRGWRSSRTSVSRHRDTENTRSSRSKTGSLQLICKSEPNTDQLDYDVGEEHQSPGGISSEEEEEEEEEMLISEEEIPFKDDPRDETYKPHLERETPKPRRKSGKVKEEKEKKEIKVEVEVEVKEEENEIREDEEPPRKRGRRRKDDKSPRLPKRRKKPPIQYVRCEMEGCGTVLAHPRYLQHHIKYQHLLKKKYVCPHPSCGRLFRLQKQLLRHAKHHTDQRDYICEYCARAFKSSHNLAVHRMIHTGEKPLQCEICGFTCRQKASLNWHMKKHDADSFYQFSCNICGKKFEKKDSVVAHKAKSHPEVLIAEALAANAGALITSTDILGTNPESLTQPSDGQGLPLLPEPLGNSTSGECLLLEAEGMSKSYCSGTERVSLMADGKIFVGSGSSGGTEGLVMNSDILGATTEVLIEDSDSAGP

Assay [3] addresses T1, GSPT1. Put plainly: selectivity by Western blot in MM1S cells, GSPT1. The class given is cell-based. Conditions: MM1S cells, 6 hours, 0.3, 3 and 30 μM. The method, then:
as §1
Target sequence in this assay (P15170 whole entry, looked up): as the sequence (P15170 whole entry) above
Target sequence in this assay (Q96SW2 whole entry, looked up): as the sequence (Q96SW2 whole entry) above
Target sequence in this assay (Q16531 whole entry partner, looked up): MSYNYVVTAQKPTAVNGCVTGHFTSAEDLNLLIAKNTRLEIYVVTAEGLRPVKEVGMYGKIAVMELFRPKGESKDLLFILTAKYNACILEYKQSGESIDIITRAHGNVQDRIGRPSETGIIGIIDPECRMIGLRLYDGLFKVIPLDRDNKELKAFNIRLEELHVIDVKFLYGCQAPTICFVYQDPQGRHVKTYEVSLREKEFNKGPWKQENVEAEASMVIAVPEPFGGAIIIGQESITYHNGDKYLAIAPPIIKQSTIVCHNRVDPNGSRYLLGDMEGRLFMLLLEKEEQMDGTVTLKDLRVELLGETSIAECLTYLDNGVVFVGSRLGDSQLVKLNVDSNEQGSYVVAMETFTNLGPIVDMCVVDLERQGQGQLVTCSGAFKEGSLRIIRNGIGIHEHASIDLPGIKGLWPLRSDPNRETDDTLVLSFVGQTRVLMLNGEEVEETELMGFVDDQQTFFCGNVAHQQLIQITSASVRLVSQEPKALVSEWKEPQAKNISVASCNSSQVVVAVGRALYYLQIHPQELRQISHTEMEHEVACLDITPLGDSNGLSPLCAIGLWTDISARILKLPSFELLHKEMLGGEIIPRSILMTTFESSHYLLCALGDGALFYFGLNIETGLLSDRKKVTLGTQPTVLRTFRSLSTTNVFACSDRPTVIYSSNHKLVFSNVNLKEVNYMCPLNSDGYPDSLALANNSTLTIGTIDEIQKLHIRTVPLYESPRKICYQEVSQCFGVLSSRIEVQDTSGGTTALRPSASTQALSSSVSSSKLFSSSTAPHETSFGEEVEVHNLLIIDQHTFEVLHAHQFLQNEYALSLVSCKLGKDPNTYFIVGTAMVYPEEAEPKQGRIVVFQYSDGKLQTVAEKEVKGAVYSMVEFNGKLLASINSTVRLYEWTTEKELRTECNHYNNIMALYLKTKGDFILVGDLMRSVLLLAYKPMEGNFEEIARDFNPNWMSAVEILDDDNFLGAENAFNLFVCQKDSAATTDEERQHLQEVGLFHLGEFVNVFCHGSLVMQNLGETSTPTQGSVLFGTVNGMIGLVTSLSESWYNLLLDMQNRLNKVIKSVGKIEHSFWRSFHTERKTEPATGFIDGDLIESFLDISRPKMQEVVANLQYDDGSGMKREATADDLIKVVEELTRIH

[4] abbreviates: CRBN-DDB1, HTRF, read-out: HTRF Class (HTRF IC50, Cereblon binding).
The mark [5] stands for this setting: CAL-51 cells, 6 h; read-out: IF Class (GSPT1 degradation DC50).
Where [6] appears, read: 6 hours, read-out: Activity for GSPT1 degradation, Code (DC50).
[7] abbreviates: GSPT1 degradation, read-out: DC50 value.

Each structure is given as a SMILES string. Read-outs that look alike come from different tables or passages of the source.

Chain of CRBN-DDB1 (Q96SW2 whole entry): as the sequence (Q96SW2 whole entry) above
Chain of CRBN-DDB1 (Q16531 whole entry partner): as the sequence (Q16531 whole entry partner, looked up) above
Chain of CK1alpha (P48729 whole entry, looked up): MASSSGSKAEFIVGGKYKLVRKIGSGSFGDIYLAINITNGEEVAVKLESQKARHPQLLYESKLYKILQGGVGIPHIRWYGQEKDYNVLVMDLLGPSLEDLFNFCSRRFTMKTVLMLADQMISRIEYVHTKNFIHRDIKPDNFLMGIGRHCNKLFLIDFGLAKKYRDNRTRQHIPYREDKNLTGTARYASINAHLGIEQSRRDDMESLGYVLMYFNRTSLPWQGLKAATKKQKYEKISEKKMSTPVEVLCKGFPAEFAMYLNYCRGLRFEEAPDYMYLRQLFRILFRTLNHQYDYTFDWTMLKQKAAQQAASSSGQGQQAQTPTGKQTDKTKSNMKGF
Chain of IKZF3 (Aiolos) (Q9UKT9 whole entry, looked up): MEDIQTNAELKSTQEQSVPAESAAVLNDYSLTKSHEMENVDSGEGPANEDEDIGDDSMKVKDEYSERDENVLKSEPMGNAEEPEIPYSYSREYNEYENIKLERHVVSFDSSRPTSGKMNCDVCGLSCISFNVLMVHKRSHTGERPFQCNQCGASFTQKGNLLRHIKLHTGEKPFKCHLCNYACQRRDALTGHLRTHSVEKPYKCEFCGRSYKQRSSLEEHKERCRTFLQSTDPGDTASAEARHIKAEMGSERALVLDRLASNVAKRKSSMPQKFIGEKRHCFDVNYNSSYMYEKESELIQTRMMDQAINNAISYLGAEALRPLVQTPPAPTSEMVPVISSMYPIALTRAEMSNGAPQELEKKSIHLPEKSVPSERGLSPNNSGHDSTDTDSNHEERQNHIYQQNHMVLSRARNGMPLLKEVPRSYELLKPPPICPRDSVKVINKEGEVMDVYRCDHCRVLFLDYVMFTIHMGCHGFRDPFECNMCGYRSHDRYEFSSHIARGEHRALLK

As to `Cc1ccc(NC(=O)OCc2ccc3c(c2)C(=O)N([C@H]2CCC(=O)NC2=O)C3)cc1Cl` (single isomer, unassigned) [Compound 175], the IC50 at CRBN-DDB1 (setting [4]) is > 1000 nM. Moreover, the DC50 at GSPT1 [1] (setting [5]) is < 30 nM.
On the same counts, the results for `Cc1ccc(NC(=O)OCc2ccc3c(c2)C(=O)N([C@@H]2CCC(=O)NC2=O)C3)cc1Cl` (single isomer, unassigned) [Compound 176] are < 100 nM and < 30 nM.
For `CC(C)(C)c1ccc(NC(=O)OCc2ccc3c(c2)C(=O)N(C2CCC(=O)NC2=O)C3)cc1` (centres unmarked) [Compound 47], the half-maximal degradation concentration (DC50) on GSPT1 [2] (setting [6]) was < 30 nM; on GSPT1 [2] (setting [7]), ≤ 30 nM. Further, on IKZF1 (Ikaros), the IKZF1 degradation entry is “A”. In addition, the IKZF3 degradation entry at IKZF3 (Aiolos) is “A”. For the same compound, at CK1alpha, the CK1alpha degradation entry is “B (B represents trace degradation at 30 μM (below 20%))”. The ZFP91 degradation entry at ZFP91 is “B (B represents trace degradation at 30 μM (below 20%))”. Besides, the GSPT1 degradation result on GSPT1 [3] is given as “F (F represents degradation at 0.3 μM (>90%))”.
In the case of `CCc1ncc(NC(=O)OCc2ccc3c(c2)C(=O)N(C2CCC(=O)NC2=O)C3)cc1C` (centres unmarked) [Compound 49], the 50% degradation concentration (DC50) is < 30 nM on GSPT1 [2] (setting [6]) and ≤ 30 nM on GSPT1 [2] (setting [7]). Also, the IKZF1 degradation result on IKZF1 (Ikaros) was “A”. For the same compound, the IKZF3 degradation entry at IKZF3 (Aiolos) is given as “A”. Besides, the CK1alpha degradation entry on CK1alpha is recorded as “B (B represents trace degradation at 30 μM (below 20%))”. For the same compound, on ZFP91, the ZFP91 degradation result was “B (B represents trace degradation at 30 μM (below 20%))”. The GSPT1 degradation result on GSPT1 [3] is “F (F represents degradation at 0.3 μM (>90%))”.
For the compound `COc1ccc(C(F)(F)C23CC(NC(=O)OCc4ccc5c(c4)C(=O)N(C4CCC(=O)NC4=O)C5)(C2)C3)cc1` (centres unmarked) [Compound 214, (2-(2,6-dioxopiperidin-3-yl)-3-oxoisoindolin-5-yl)methyl(3-(difluoro(4-methoxyphenyl)methyl)bicyclo[1.1.1]pentan-1-yl)carbamate], the concentration for half-maximal inhibition (IC50) on CRBN-DDB1 was < 100 nM. For the same compound, the DC50 on GSPT1 [1] (read-out: IF Class (GSPT1 degradation DC50); CAL-51 cells, 6 h) lay within 30 to 300 nM.

In general, IC50 refers to the concentration needed to halve the response being measured. As usually defined, the DC50 is the concentration at which degradation of the target reaches its halfway point.

These data come from patent US11912682B2, “Isoindolinone compounds” (Monte Rosa Therapeutics, Inc., priority 2021, dated 2024).
